Results reported in patent US10669242B2 (priority 2016, dated 2020).
pIC50: −log10 of the molar value.

Molecular target: T1, recombinant glucosyltransferase domain of C. difficile Toxin B/TcdB (Clostridioides difficile, UniProt P18177)
T1 construct: 6-His (C); purchased R&D Systems 6246-GT
Test: biochemical

T1 sequence (P18177 1-543): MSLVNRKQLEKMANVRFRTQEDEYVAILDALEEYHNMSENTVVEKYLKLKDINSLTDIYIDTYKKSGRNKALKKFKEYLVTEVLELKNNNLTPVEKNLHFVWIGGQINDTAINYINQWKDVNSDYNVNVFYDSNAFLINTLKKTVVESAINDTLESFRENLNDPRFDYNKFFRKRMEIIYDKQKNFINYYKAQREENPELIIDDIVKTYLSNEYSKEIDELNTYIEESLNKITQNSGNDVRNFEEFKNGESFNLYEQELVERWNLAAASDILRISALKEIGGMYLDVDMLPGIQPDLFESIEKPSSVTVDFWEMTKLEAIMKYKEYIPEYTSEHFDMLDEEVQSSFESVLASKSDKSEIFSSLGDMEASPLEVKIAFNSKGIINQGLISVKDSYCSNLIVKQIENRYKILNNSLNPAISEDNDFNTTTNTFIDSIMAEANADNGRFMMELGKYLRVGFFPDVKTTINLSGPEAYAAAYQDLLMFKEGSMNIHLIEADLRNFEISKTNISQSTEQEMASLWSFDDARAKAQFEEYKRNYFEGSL

First: O=C(O)c1ccc(CN2C(=O)c3ccc(Cl)cc3NC(=O)[C@H]2CCc2ccccc2)cc1 [Example 3c]
Second: O=C(O)c1ccc(CN2C(=O)c3ccc(Cl)cc3NC(=O)[C@H]2Cc2ccccc2Cl)cc1 [Example 3i]
The pIC50 of the first is lower: 4.46 to 5.00 for the first, 5.00 to 6.00 for the second. The second is the more potent here.

Compared with O=C(O)c1ccc(CN2C(=O)c3ccc(Cl)cc3NC(=O)[C@H]2Cc2ccc(F)cc2)cc1 [Example 3d], O=C(O)c1ccc(CN2C(=O)c3ccc(Cl)cc3NC(=O)[C@H]2Cc2ccc(Cl)cc2)cc1 [Example 3e] is lower in pIC50: 5.00 to 6.00 for the first, 4.46 to 5.00 for the second. The first is the more potent here.

O=C(O)c1ccc(CN2C(=O)c3ccc(Cl)cc3NC(=O)[C@H]2Cc2cccc(Cl)c2)cc1 [Example 3f] and Cc1cccc(C[C@@H]2C(=O)Nc3cc(Cl)ccc3C(=O)N2Cc2ccc(C(=O)O)cc2)c1 [Example 3m] fall in the same range of pIC50: 5.00 to 6.00 for the first, 5.00 to 6.00 for the second.

First: C[C@@H]1C(=O)Nc2cc(Cl)ccc2C(=O)N1Cc1ccc(C(=O)O)cc1 [Example 3g]
Second: CC(C)[C@@H]1C(=O)Nc2cc(Cl)ccc2C(=O)N1Cc1ccc(C(=O)O)cc1 [Example 3k]
The pIC50 of the first is lower: 4.46 to 5.00 for the first, 6.00 to 7.00 for the second.

First: Cc1ccc(C[C@@H]2C(=O)Nc3cc(Cl)ccc3C(=O)N2Cc2ccc(C(=O)O)cc2)cc1 [Example 3h]
Second: Cc1ccccc1C[C@@H]1C(=O)Nc2cc(Cl)ccc2C(=O)N1Cc1ccc(C(=O)O)cc1 [Example 3l]
The pIC50 of the first is lower: 4.46 to 5.00 for the first, 5.00 to 6.00 for the second. The second is the more potent here.

First: O=C(O)c1ccc(CN2C(=O)c3ccc(Cl)cc3NC(=O)[C@H]2Cc2ccccc2F)cc1 [Example 3j]
Second: O=C(Nc1ccccn1)c1ccc(CN2C(=O)c3ccc(Cl)cc3NC(=O)[C@H]2Cc2ccccc2F)cc1 [Example 4an, (R)-4-((8-chloro-3-(2-fluorobenzyl)-2,5-dioxo-2,3-dihydro-1H-benzo[e][1,4]diazepin-4(5H)-yl)methyl)-N-(pyridin-2-yl)benzamide]
The pIC50 of the first is lower: 4.46 to 5.00 for the first, over 7.00 for the second.

Compared with N#Cc1cccc(C[C@@H]2C(=O)Nc3cc(Cl)ccc3C(=O)N2Cc2ccc(C(=O)O)cc2)c1 [Example 3n], N#Cc1cccc(C[C@@H]2C(=O)Nc3cc(Cl)ccc3C(=O)N2Cc2ccc(C(=O)Nc3ccccn3)cc2)c1 [Example 4ak, (R)-4-((8-chloro-3-(3-cyanobenzyl)-2,5-dioxo-2,3-dihydro-1H-benzo[e][1,4]diazepin-4(5H)-yl)methyl)-N-(pyridin-2-yl)benzamide] is higher in pIC50: 5.00 to 6.00 for the first, over 7.00 for the second. The second is the more potent here.

First: O=C1CN(Cc2ccc(C(=O)O)cc2)C(=O)c2ccc(Cl)cc2N1 [Example 3o]
Second: O=C1CN(Cc2ccc(C(=O)Nc3ccccn3)cc2)C(=O)c2ccc(Cl)cc2N1 [Example 4am, 4-((8-chloro-2,5-dioxo-2,3-dihydro-1H-benzo[e][1,4]diazepin-4(5H)-yl)methyl)-N-(pyridin-2-yl)benzamide]
The pIC50 of the first is lower: 4.46 to 5.00 for the first, 6.00 to 7.00 for the second. The second is the more potent here.

First: O=C(Nc1ccccn1)c1ccc(CN2C(=O)c3ccc(Cl)cc3NC(=O)[C@H]2Cc2cccc(Cl)c2)cc1 [Example 4aa, (R)-4-((8-chloro-3-(3-chlorobenzyl)-2,5-dioxo-2,3-dihydro-1H-benzo[e][1,4]diazepin-4(5H)-yl)methyl)-N-(pyridin-2-yl)benzamide]
Second: Cc1cccc(C[C@@H]2C(=O)Nc3cc(Cl)ccc3C(=O)N2Cc2ccc(C(=O)Nc3ccccn3)cc2)c1 [Example 4aj, (R)-4-((8-chloro-3-(3-methylbenzyl)-2,5-dioxo-2,3-dihydro-1H-benzo[e][1,4]diazepin-4(5H)-yl)methyl)-N-(pyridin-2-yl)benzamide]
The pIC50 of the first is higher: over 7.00 for the first, 6.00 to 7.00 for the second. The first is the more potent here.

O=C1Nc2cc(Cl)ccc2C(=O)N(Cc2ccc(C(=O)n3ccc4cccnc43)c(Cl)c2)[C@@H]1Cc1ccccn1 [Example 4ab, (R)-8-chloro-4-(3-chloro-4-(1H-pyrrolo[2,3-b]pyridine-1-carbonyl)benzyl)-3-(pyridin-2-ylmethyl)-3,4-dihydro-1H-benzo[e][1,4]diazepine-2,5-dione] and CC1(C)Cc2cccnc2N1C(=O)c1ccc(CN2C(=O)c3ccc(Cl)cc3NC(=O)[C@H]2Cc2ccccn2)cc1Cl [Example 4ar, (R)-8-chloro-4-(3-chloro-4-(2,2-dimethyl-2,3-dihydro-1H-pyrrolo[2,3-b]pyridine-1-carbonyl)benzyl)-3-(pyridin-2-ylmethyl)-3,4-dihydro-1H-benzo[e][1,4]diazepine-2,5-dione] cannot be ordered by pIC50: over 7.00 for the first, over 7.00 for the second.

Cc1ccc2c(c1)NC(=O)[C@@H](Cc1ccc(Cl)c(Cl)c1)N(Cc1ccc(C(=O)Nc3ccccn3)cc1)C2=O [Example 4ac, (R)-4-((3-(3,4-dichlorobenzyl)-8-methyl-2,5-dioxo-2,3-dihydro-1H-benzo[e][1,4]diazepin-4(5H)-yl)methyl)-N-(pyridin-2-yl)benzamide] and O=C(Nc1ccccn1)c1ccc(CN2C(=O)c3ccc([N+](=O)[O-])cc3NC(=O)[C@H]2Cc2ccc(Cl)c(Cl)c2)cc1 [Example 4ae, (R)-4-((3-(3,4-dichlorobenzyl)-8-nitro-2,5-dioxo-2,3-dihydro-1H-benzo[e][1,4]diazepin-4(5H)-yl)methyl)-N-(pyridin-2-yl)benzamide] fall in the same range of pIC50: 6.00 to 7.00 for the first, 6.00 to 7.00 for the second.

Cc1cnc2c(c1)CCN2C(=O)c1ccc(CN2C(=O)c3ccc(Cl)cc3NC(=O)[C@H]2Cc2ccccn2)cc1 [Example 4af, (R)-8-chloro-4-(4-(5-methyl-2,3-dihydro-1H-pyrrolo[2,3-b]pyridine-1-carbonyl)benzyl)-3-(pyridin-2-ylmethyl)-3,4-dihydro-1H-benzo[e][1,4]diazepine-2,5-dione] and O=C1Nc2cc(Cl)ccc2C(=O)N(Cc2ccc(C(=O)N3CCc4cccnc43)cc2)[C@@H]1Cc1ccccn1 [Example 4ah, (R)-8-chloro-4-(4-(2,3-dihydro-1H-pyrrolo[2,3-b]pyridine-1-carbonyl)benzyl)-3-(pyridin-2-ylmethyl)-3,4-dihydro-1H-benzo[e][1,4]diazepine-2,5-dione] cannot be ordered by pIC50: over 7.00 for the first, over 7.00 for the second.

First: O=C1Nc2cc(Cl)ccc2C(=O)N(Cc2ccc(C(=O)N3CCCc4cccnc43)cc2)[C@@H]1Cc1ccccn1 [Example 4ag, (R)-8-chloro-3-(pyridin-2-ylmethyl)-4-(4-(1,2,3,4-tetrahydro-1,8-naphthyridine-1-carbonyl)benzyl)-3,4-dihydro-1H-benzo[e][1,4]diazepine-2,5-dione]
Second: O=C(Nc1ccccn1)c1ccc(CN2C(=O)c3ccc(Cl)cc3NC(=O)[C@@H]2Cc2ccccn2)cc1 [Example 4aq, (S)-4-((8-chloro-2,5-dioxo-3-(pyridin-2-ylmethyl)-2,3-dihydro-1H-benzo[e][1,4]diazepin-4(5H)-yl)methyl)-N-(pyridin-2-yl)benzamide]
The pIC50 of the first is lower: 5.00 to 6.00 for the first, over 7.00 for the second.

Cc1ccccc1C[C@@H]1C(=O)Nc2cc(Cl)ccc2C(=O)N1Cc1ccc(C(=O)Nc2ccccn2)cc1 [Example 4ai, (R)-4-((8-chloro-3-(2-methylbenzyl)-2,5-dioxo-2,3-dihydro-1H-benzo[e][1,4]diazepin-4(5H)-yl)methyl)-N-(pyridin-2-yl)benzamide] and COc1ccc(NC(=O)c2ccc(CN3C(=O)c4ccc(Cl)cc4NC(=O)[C@H]3Cc3ccccn3)cc2)nc1 [Example 4ao, (R)-4-((8-chloro-2,5-dioxo-3-(pyridin-2-ylmethyl)-2,3-dihydro-1H-benzo[e][1,4]diazepin-4(5H)-yl)methyl)-N-(5-methoxypyridin-2-yl)benzamide] cannot be ordered by pIC50: over 7.00 for the first, over 7.00 for the second.

Cc1ccc(NC(=O)c2ccc(CN3C(=O)c4ccc(Cl)cc4NC(=O)[C@H]3Cc3cscn3)cc2)nc1 [Example 4al, (R)-4-((8-chloro-2,5-dioxo-3-(thiazol-4-ylmethyl)-2,3-dihydro-1H-benzo[e][1,4]diazepin-4(5H)-yl)methyl)-N-(5-methylpyridin-2-yl)benzamide] and CCc1ccc(NC(=O)c2ccc(CN3C(=O)c4ccc(Cl)cc4NC(=O)[C@H]3Cc3ccccn3)cc2)nc1 [Example 4ap, (R)-4-((8-chloro-2,5-dioxo-3-(pyridin-2-ylmethyl)-2,3-dihydro-1H-benzo[e][1,4]diazepin-4(5H)-yl)methyl)-N-(5-ethylpyridin-2-yl)benzamide] cannot be ordered by pIC50: over 7.00 for the first, over 7.00 for the second.

CC1(C)CN(C(=O)c2ccc(CN3C(=O)c4ccc(Cl)cc4NC(=O)[C@H]3Cc3ccccn3)cc2Cl)c2ncccc21 [Example 4as, (R)-8-chloro-4-(3-chloro-4-(3,3-dimethyl-2,3-dihydro-1H-pyrrolo[2,3-b]pyridine-1-carbonyl)benzyl)-3-(pyridin-2-ylmethyl)-3,4-dihydro-1H-benzo[e][1,4]diazepine-2,5-dione] and O=C(Nc1ccc(N2CCOCC2)cn1)c1ccc(CN2C(=O)c3ccc(Cl)cc3NC(=O)[C@H]2Cc2ccccn2)cc1 [Example 4av, (R)-4-((8-chloro-2,5-dioxo-3-(pyridin-2-ylmethyl)-2,3-dihydro-1H-benzo[e][1,4]diazepin-4(5H)-yl)methyl)-N-(5-morpholinopyridin-2-yl)benzamide] cannot be ordered by pIC50: over 7.00 for the first, over 7.00 for the second.

Compared with CC(C)c1ccc(NC(=O)c2ccc(CN3C(=O)c4ccc(Cl)cc4NC(=O)[C@H]3Cc3cccnc3)cc2)nc1 [Example 4at, (R)-4-((8-chloro-2,5-dioxo-3-(pyridin-3-ylmethyl)-2,3-dihydro-1H-benzo[e][1,4]diazepin-4(5H)-yl)methyl)-N-(5-isopropylpyridin-2-yl)benzamide], CCc1ccc(NC(=O)c2ccc(CN3C(=O)c4ccc(Cl)cc4NC(=O)[C@H]3C)cc2)nc1 [Example 4ay, (R)-4-((8-chloro-3-methyl-2,5-dioxo-2,3-dihydro-1H-benzo[e][1,4]diazepin-4(5H)-yl)methyl)-N-(5-ethylpyridin-2-yl)benzamide] is lower in pIC50: over 7.00 for the first, 6.00 to 7.00 for the second.

First: CC(C)(C)OC(=O)N1CCN(c2ccc(NC(=O)c3ccc(CN4C(=O)c5ccc(Cl)cc5NC(=O)[C@H]4Cc4ccccn4)cc3)nc2)CC1 [Example 4aw, (R)-tert-butyl 4-(6-(4-((8-chloro-2,5-dioxo-3-(pyridin-2-ylmethyl)-2,3-dihydro-1H-benzo[e][1,4]diazepin-4(5H)-yl)methyl)benzamido)pyridin-3-yl)piperazine-1-carboxylate]
Second: CN1CCN(c2ccc(NC(=O)c3ccc(CN4C(=O)c5ccc(Cl)cc5NC(=O)[C@H]4Cc4ccccn4)cc3)nc2)CC1 [Example 4ax, (R)-4-((8-chloro-2,5-dioxo-3-(pyridin-2-ylmethyl)-2,3-dihydro-1H-benzo[e][1,4]diazepin-4(5H)-yl)methyl)-N-(5-(4-methylpiperazin-1-yl)pyridin-2-yl)benzamide]
The pIC50 of the first is lower: 6.00 to 7.00 for the first, over 7.00 for the second. The second is the more potent here.
